Laboratory results reported in the supplement of paper PMC10307832.

Key:
Assay in all cases: relative viability (nuclei count vs DMSO), 5 days (fraction); higher = more cells survive
[1] = compound: CCN1C(=O)C2=CC(=C(N=C2N(C1=O)C3CC3)N)C(=O)N + CC(=O)Nc1cccc(-n2c(=O)n(C3CC3)c(=O)c3c(Nc4ccc(I)cc4F)n(C)c(=O)c(C)c32)c1 [Trametinib] (partner 0.02 µM)
Summary of the method: (§1)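 Lung cancer cell lines, seeded in 1536-well plates, were treated the following day by pin tool with a single drug or with five library-drug doses (not always all listed) in √10 steps on top of a fixed anchor-drug dose. Cells were fixed and nuclei stained in one step after 5 days, and nuclei were counted. Relative viability is the nuclei count for treated wells divided by that for vehicle wells, reported as medians of duplicate plates.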

[2] = compound: CCN1C(=O)C2=CC(=C(N=C2N(C1=O)C3CC3)N)C(=O)N + O=C(CCCCCCC(=O)Nc1ccccc1)NO [Vorinostat] (partner 1 µM)
Summary of the method: as §1

[3] = compound: CCN1C(=O)C2=CC(=C(N=C2N(C1=O)C3CC3)N)C(=O)N + NC(=O)Nc1cc(-c2cccc(F)c2)sc1C(=O)N[C@H]1CCCNC1 [AZD7762] (partner 0.2 µM)
Summary of the method: as §1

[4] = compound: CCN1C(=O)C2=CC(=C(N=C2N(C1=O)C3CC3)N)C(=O)N + CS(=O)(=O)CCNCc1ccc(-c2ccc3ncnc(Nc4ccc(OCc5cccc(F)c5)c(Cl)c4)c3c2)o1 [Lapatinib] (partner 2 µM)
Summary of the method: as §1

[5] = compound: CCN1C(=O)C2=CC(=C(N=C2N(C1=O)C3CC3)N)C(=O)N
Summary of the method: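 Viability is treated-well nuclei as a fraction of vehicle-well nuclei, reported as the median across plates. Before counting, lung cancer cell lines were kept overnight at 37 °C in 1536-well plates, pinned with five √10-spaced library-drug doses on vehicle-anchored plates, and left 5 days without medium change, then fixed, permeabilised and Hoechst-stained in one step, imaged at 4× and counted by MetaXpress. A plate passed only if control CV was below 25% and at least one doubling occurred.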

Cell Line	relative viability ([1]; first compound 0.253 µM)	relative viability ([1]; first compound 0.8 µM)	relative viability ([1]; first compound 2.53 µM)	relative viability ([1]; first compound 8 µM)	relative viability ([2]; first compound 0.253 µM)	relative viability ([2]; first compound 0.8 µM)	relative viability ([2]; first compound 2.53 µM)	relative viability ([2]; first compound 8 µM)	relative viability ([3]; first compound 0.253 µM)	relative viability ([3]; first compound 0.8 µM)	relative viability ([3]; first compound 2.53 µM)	relative viability ([3]; first compound 8 µM)	relative viability ([4]; first compound 0.253 µM)	relative viability ([4]; first compound 0.8 µM)	relative viability ([4]; first compound 2.53 µM)	relative viability ([4]; first compound 8 µM)	relative viability ([5]; 0.253 µM)	relative viability ([5]; 0.8 µM)	relative viability ([5]; 2.53 µM)	relative viability ([5]; 8 µM)
PC-14	0.743	0.721	0.768	0.715	0.621	0.743	0.679	0.779	0.397	0.288	0.513	0.294	0.293	0.287	0.303	0.315	0.983	0.951	1.07	1.06
NCI-H3122	0.224	0.21	0.266	0.224	0.912	0.975	0.968	0.988	0.922	0.967	1.02	0.983	1	1.05	0.951	1.03	1.01	1.01	0.993	0.956
SK-MES-1	0.625	0.533	0.557	0.517	1.04	1.01	1.04	1.08	–	–	–	–	0.478	0.485	0.451	0.492	1.01	0.972	0.976	0.997
NCI-H1944	0.451	0.445	0.353	0.427	0.641	0.51	0.51	0.553	0.541	0.479	0.528	0.487	0.873	0.679	0.818	0.756	1.01	0.919	0.954	0.827
LK-2	0.756	0.715	0.727	0.795	0.286	0.377	0.307	0.302	0.516	0.348	0.359	0.608	0.89	0.878	0.995	1.09	0.979	0.981	1.03	1.04
RERF-LC-KJ	0.697	0.793	0.751	0.847	0.678	0.737	0.807	0.838	1.02	0.826	1.6	1	0.897	0.882	0.909	0.86	1.02	0.929	0.909	0.959
COR-L23	0.581	0.584	0.591	0.592	0.413	0.393	0.446	0.343	–	–	–	–	0.927	1.03	0.745	1.04	1.01	0.962	1.04	1.12
NCI-H1355	0.429	0.387	0.383	0.438	0.626	0.662	0.636	0.674	0.798	0.821	0.756	0.691	1.08	1.06	0.998	1.01	1	0.998	0.992	0.973
NCI-H460	0.226	0.13	0.13	0.13	0.788	0.74	0.625	0.688	0.609	0.572	0.57	0.586	1.04	1.07	0.902	1.02	0.976	0.989	0.967	0.972
NCI-H1993	0.587	0.576	0.511	0.491	0.0267	0.735	0.76	0.853	0.74	0.805	0.847	0.771	0.782	0.817	0.815	0.823	0.972	0.83	0.919	0.878
ChaGo-K-1	0.922	0.951	0.861	0.875	0.793	0.764	0.72	0.748	0.873	0.863	0.89	0.872	–	–	–	–	1.12	0.949	0.973	0.924
HCC-15	0.412	0.382	0.369	0.429	0.885	0.785	0.869	0.815	1.18	1.45	1.18	1.31	0.816	0.903	0.782	0.859	0.943	1.02	0.994	1.03
NCI-H23	0.385	0.416	0.365	0.391	0.548	0.715	0.58	0.635	0.272	0.208	0.284	0.2	1.21	1.08	1.06	1.11	0.86	0.96	0.977	0.984
NCI-H1395	1.13	0.94	1.04	1.07	0.716	0.549	0.912	0.674	0.42	0.388	0.428	0.397	1.04	0.915	1.1	0.893	0.935	0.972	1.08	0.921
NCI-H1666	0.906	0.778	0.83	0.815	1.05	0.99	1	1.09	0.888	0.824	0.909	0.84	0.831	0.495	0.633	0.736	0.93	0.986	0.959	0.938
NCI-H2405	0.689	–	0.661	0.602	1.21	–	1.26	1.14	0.868	–	0.928	0.725	1.21	1.16	1.08	1.01	1.09	1.02	1.06	0.982
